For test [1], the system named is allergic reactions. Nature of the test: PCA test (antiallergic activity, rats). Format: in vivo. The note with it: for ED50: Rattus norvegicus, iv; for ED50 / percental activity in the PCA test: rats. How it is done:
(§1) The tests were carried out by the PCA test-method (Ovary: J. Immun. 81, 355, 1958) and the Church-test (British J. Pharm. 46, 56-66, 1972; Immunology 29, 527-534, 1975) and as comparing substance disodium chromoglycate is used. The test is carried out in rats.

For test [2], the system named is histamine. The test can be described thus: Released histamine in vitro (antiallergic tests incl. Church-test). Format: cell-based, rats. The settings on record: Rattus norvegicus; read-out: Released histamine in vitro, ED50. The procedure: as §1
The test system of test [3] is allergic symptoms. The settings on record: orally; background statement; cited from earlier work.

Structures are written as SMILES.

Usually ED50 stands for the dose at which the effect has come halfway, by size or by number of responders. Read a low ED50 as an effect at a small dose. Compound `CC1CC=C(Nc2ccccc2)c2ncc(C(=O)O)c(=O)n21` (stereo not shown) [Example 1, 9-(phenyl-amino)-6-methyl-4-oxo-6,7-dihydro-4H-pyrido[1,2-a]pyrimidine-3-carboxylic acid] displayed a 50% effective dose (ED50) in test [1] of 1.3 µmol/kg. The “percental activity in the PCA test” value in test [1] (single i.v. dose of 10 μmole/kg) turned out to be 60%; in test [1] (single i.v. dose of 320 μmole/kg), 100%. For the same compound, the IC50 in test [2] was found to be 12.3 µM.
With `O=C(O)c1cc(=O)c2c(OCC(O)COc3cccc4oc(C(=O)O)cc(=O)c34)cccc2o1` [disodium chromoglycolate, reference compound], the 50% effective dose (ED50) in test [1] was 1 µmol/kg. In addition, the “route dependence / oral activity” value in test [1] (oral versus i.v., words) was “effective only when administered intravenously”. Also, in test [3], the “oral activity of antiasthmatic agent” value is on record as “not active orally”.

The record behind these values is patent US4260612A, “Antiallergic nitrogen bridge-head compounds” (Chinoin Gyogyszer es Vecyeszeti Termekek Gyara Rt., priority 1977, dated 1981).
